Reference: patent US7820623B2 (priority 2006, dated 2010)
Bridge positions count the residues as written; N and C are the ends. Square brackets hold non-standard residues; d marks the D form. Peptide text beside a SMILES is read from it. 1Nal = N[C@@H](Cc1cccc2ccccc12)C(=O)O

Columns and labels:
[1] = test system: thapsigargin-induced IL-2 production in human whole blood; settings: read-out: Analogue Activity (IC50) WB/IL-2
[2] = test system: thapsigargin-induced IFN-g production in human whole blood; assay type: cell-based; settings: read-out: Analogue Activity (IC50) WB/IFNg

SMILES	IC50 [1] [nM]	IC50 [2] [nM]
CC[C@H](C)[C@@H]1NC(=O)[C@H](CCCCN)NC(=O)[C@@H](NC(=O)[C@H](CCCCN)NC(=O)[C@@H](NC(=O)[C@H](CC(N)=O)NC(=O)[C@@H](NC(=O)[C@H](Cc2cccc3ccccc23)NC(=O)[C@@H](NC(=O)CN)C(C)C)[C@@H](C)CC)C(C)C)CSSC[C@@H]2NC(=O)[C@H](CCCCN)NC(=O)CNC(=O)[C@H](Cc3ccccc3)NC(=O)[C@H](CCCNC(=N)N)NC(=O)[C@H](CCSC)NC(=O)CNC(=O)[C@H](C)NC(=O)[C@H](CCCCN)NC(=O)[C@H](CCCCN)NC(=O)[C@@H]3CSSC[C@@H](C(=O)N[C@H](C(=O)N4CCC[C@H]4C(=O)N[C@@H](CCCCN)C(=O)O)[C@@H](C)O)NC(=O)[C@H](Cc4c[nH]cn4)NC(=O)[C@H](CSSC[C@H](NC(=O)[C@H](CCC(N)=O)NC(=O)[C@H](CCCNC(=N)N)NC(=O)[C@H](CO)NC1=O)C(=O)N[C@@H](CC(C)C)C(=O)N[C@@H](CCC(=O)O)C(=O)N1CCC[C@H]1C(=O)N3)NC(=O)[C@H](CCCCN)NC(=O)CNC(=O)[C@H](CC(N)=O)NC(=O)[C@H](CCSC)NC2=O [I3Nal] (H-GV[1Nal]INVKCKISRQCLEPCKKAGMRFGKCMNGKCHCTPK-OH; disulfide 8-28, 14-33, 18-35)	0.907	0.739
CC[C@H](C)[C@@H]1NC(=O)[C@H](CCCCN)NC(=O)[C@@H](NC(=O)[C@H](CCCCN)NC(=O)[C@@H](NC(=O)[C@H](CC(N)=O)NC(=O)[C@@H](NC(=O)[C@H](CCCNC(=N)N)NC(=O)[C@@H](NC(=O)CN)C(C)C)[C@@H](C)CC)C(C)C)CSSC[C@@H]2NC(=O)[C@H](CCCCN)NC(=O)CNC(=O)[C@H](Cc3ccccc3)NC(=O)[C@H](CCCNC(=N)N)NC(=O)[C@H](CCSC)NC(=O)CNC(=O)[C@H](C)NC(=O)[C@H](CCCCN)NC(=O)[C@H](CCCCN)NC(=O)[C@@H]3CSSC[C@@H](C(=O)N[C@H](C(=O)N4CCC[C@H]4C(=O)N[C@@H](CCCCN)C(=O)O)[C@@H](C)O)NC(=O)[C@H](Cc4c[nH]cn4)NC(=O)[C@H](CSSC[C@H](NC(=O)[C@H](CCC(N)=O)NC(=O)[C@H](CCCNC(=N)N)NC(=O)[C@H](CO)NC1=O)C(=O)N[C@@H](CC(C)C)C(=O)N[C@@H](CCC(=O)O)C(=O)N1CCC[C@H]1C(=O)N3)NC(=O)[C@H](CCCCN)NC(=O)CNC(=O)[C@H](CC(N)=O)NC(=O)[C@H](CCSC)NC2=O [I3R] (H-GVRINVKCKISRQCLEPCKKAGMRFGKCMNGKCHCTPK-OH; disulfide 8-28, 14-33, 18-35)	0.148	0.18
CC[C@H](C)[C@@H]1NC(=O)[C@H](CCCCN)NC(=O)[C@@H](NC(=O)[C@H](CCCCN)NC(=O)[C@@H](NC(=O)[C@H](CC(N)=O)NC(=O)[C@H](C)NC(=O)[C@@H](NC(=O)[C@@H](NC(=O)CN)C(C)C)[C@@H](C)CC)C(C)C)CSSC[C@@H]2NC(=O)[C@H](CCCCN)NC(=O)CNC(=O)[C@H](Cc3ccccc3)NC(=O)[C@H](CCCNC(=N)N)NC(=O)[C@H](CCSC)NC(=O)CNC(=O)[C@H](C)NC(=O)[C@H](CCCCN)NC(=O)[C@H](CCCCN)NC(=O)[C@@H]3CSSC[C@@H](C(=O)N[C@H](C(=O)N4CCC[C@H]4C(=O)N[C@@H](CCCCN)C(=O)O)[C@@H](C)O)NC(=O)[C@H](Cc4c[nH]cn4)NC(=O)[C@H](CSSC[C@H](NC(=O)[C@H](CCC(N)=O)NC(=O)[C@H](CCCNC(=N)N)NC(=O)[C@H](CO)NC1=O)C(=O)N[C@@H](CC(C)C)C(=O)N[C@@H](CCC(=O)O)C(=O)N1CCC[C@H]1C(=O)N3)NC(=O)[C@H](CCCCN)NC(=O)CNC(=O)[C@H](CC(N)=O)NC(=O)[C@H](CCSC)NC2=O [I4A] (H-GVIANVKCKISRQCLEPCKKAGMRFGKCMNGKCHCTPK-OH; disulfide 8-28, 14-33, 18-35)	0.111	0.0873
CC[C@H](C)[C@@H]1NC(=O)[C@H](CCCCN)NC(=O)[C@@H](NC(=O)[C@H](CCCCN)NC(=O)[C@@H](NC(=O)[C@H](CC(N)=O)NC(=O)[C@H](CCC(=O)O)NC(=O)[C@@H](NC(=O)[C@@H](NC(=O)CN)C(C)C)[C@@H](C)CC)C(C)C)CSSC[C@@H]2NC(=O)[C@H](CCCCN)NC(=O)CNC(=O)[C@H](Cc3ccccc3)NC(=O)[C@H](CCCNC(=N)N)NC(=O)[C@H](CCSC)NC(=O)CNC(=O)[C@H](C)NC(=O)[C@H](CCCCN)NC(=O)[C@H](CCCCN)NC(=O)[C@@H]3CSSC[C@@H](C(=O)N[C@H](C(=O)N4CCC[C@H]4C(=O)N[C@@H](CCCCN)C(=O)O)[C@@H](C)O)NC(=O)[C@H](Cc4c[nH]cn4)NC(=O)[C@H](CSSC[C@H](NC(=O)[C@H](CCC(N)=O)NC(=O)[C@H](CCCNC(=N)N)NC(=O)[C@H](CO)NC1=O)C(=O)N[C@@H](CC(C)C)C(=O)N[C@@H](CCC(=O)O)C(=O)N1CCC[C@H]1C(=O)N3)NC(=O)[C@H](CCCCN)NC(=O)CNC(=O)[C@H](CC(N)=O)NC(=O)[C@H](CCSC)NC2=O [I4E] (H-GVIENVKCKISRQCLEPCKKAGMRFGKCMNGKCHCTPK-OH; disulfide 8-28, 14-33, 18-35)	0.218	0.191
CC[C@H](C)[C@@H]1NC(=O)[C@H](CCCCN)NC(=O)[C@@H](NC(=O)[C@H](CCCCN)NC(=O)[C@@H](NC(=O)[C@H](CC(N)=O)NC(=O)[C@H](Cc2cccc3ccccc23)NC(=O)[C@@H](NC(=O)[C@@H](NC(=O)CN)C(C)C)[C@@H](C)CC)C(C)C)CSSC[C@@H]2NC(=O)[C@H](CCCCN)NC(=O)CNC(=O)[C@H](Cc3ccccc3)NC(=O)[C@H](CCCNC(=N)N)NC(=O)[C@H](CCSC)NC(=O)CNC(=O)[C@H](C)NC(=O)[C@H](CCCCN)NC(=O)[C@H](CCCCN)NC(=O)[C@@H]3CSSC[C@@H](C(=O)N[C@H](C(=O)N4CCC[C@H]4C(=O)N[C@@H](CCCCN)C(=O)O)[C@@H](C)O)NC(=O)[C@H](Cc4c[nH]cn4)NC(=O)[C@H](CSSC[C@H](NC(=O)[C@H](CCC(N)=O)NC(=O)[C@H](CCCNC(=N)N)NC(=O)[C@H](CO)NC1=O)C(=O)N[C@@H](CC(C)C)C(=O)N[C@@H](CCC(=O)O)C(=O)N1CCC[C@H]1C(=O)N3)NC(=O)[C@H](CCCCN)NC(=O)CNC(=O)[C@H](CC(N)=O)NC(=O)[C@H](CCSC)NC2=O [I4Nal] (H-GVI[1Nal]NVKCKISRQCLEPCKKAGMRFGKCMNGKCHCTPK-OH; disulfide 8-28, 14-33, 18-35)	1.09	1.01
CC[C@H](C)[C@@H]1NC(=O)[C@H](CCCCN)NC(=O)[C@@H](NC(=O)[C@H](CCCCN)NC(=O)[C@@H](NC(=O)[C@H](CC(N)=O)NC(=O)[C@H](CCCNC(=N)N)NC(=O)[C@@H](NC(=O)[C@@H](NC(=O)CN)C(C)C)[C@@H](C)CC)C(C)C)CSSC[C@@H]2NC(=O)[C@H](CCCCN)NC(=O)CNC(=O)[C@H](Cc3ccccc3)NC(=O)[C@H](CCCNC(=N)N)NC(=O)[C@H](CCSC)NC(=O)CNC(=O)[C@H](C)NC(=O)[C@H](CCCCN)NC(=O)[C@H](CCCCN)NC(=O)[C@@H]3CSSC[C@@H](C(=O)N[C@H](C(=O)N4CCC[C@H]4C(=O)N[C@@H](CCCCN)C(=O)O)[C@@H](C)O)NC(=O)[C@H](Cc4c[nH]cn4)NC(=O)[C@H](CSSC[C@H](NC(=O)[C@H](CCC(N)=O)NC(=O)[C@H](CCCNC(=N)N)NC(=O)[C@H](CO)NC1=O)C(=O)N[C@@H](CC(C)C)C(=O)N[C@@H](CCC(=O)O)C(=O)N1CCC[C@H]1C(=O)N3)NC(=O)[C@H](CCCCN)NC(=O)CNC(=O)[C@H](CC(N)=O)NC(=O)[C@H](CCSC)NC2=O [I4R] (H-GVIRNVKCKISRQCLEPCKKAGMRFGKCMNGKCHCTPK-OH; disulfide 8-28, 14-33, 18-35)	0.168	0.175
CC[C@H](C)[C@H](NC(=O)[C@@H](NC(=O)CN)C(C)C)C(=O)N[C@H](C(=O)N[C@@H](CC(N)=O)C(=O)N[C@H](C(=O)N[C@@H](CCCCN)C(=O)N[C@H]1CSSC[C@@H]2NC(=O)[C@H](CCCCN)NC(=O)CNC(=O)[C@H](Cc3ccccc3)NC(=O)[C@H](CCCNC(=N)N)NC(=O)[C@H](CCSC)NC(=O)CNC(=O)[C@H](C)NC(=O)[C@H](CCCCN)NC(=O)[C@H](CCCCN)NC(=O)[C@@H]3CSSC[C@@H](C(=O)N[C@H](C(=O)N4CCC[C@H]4C(=O)N[C@@H](CCCCN)C(=O)O)[C@@H](C)O)NC(=O)[C@H](Cc4c[nH]cn4)NC(=O)[C@H](CSSC[C@H](NC(=O)[C@H](CCC(N)=O)NC(=O)[C@H](CCCNC(=N)N)NC(=O)[C@H](CO)NC(=O)[C@H](C)NC(=O)[C@H](CCCCN)NC1=O)C(=O)N[C@@H](CC(C)C)C(=O)N[C@@H](CCC(=O)O)C(=O)N1CCC[C@H]1C(=O)N3)NC(=O)[C@H](CCCCN)NC(=O)CNC(=O)[C@H](CC(N)=O)NC(=O)[C@H](CCSC)NC2=O)C(C)C)[C@@H](C)CC [I10A] (H-GVIINVKCKASRQCLEPCKKAGMRFGKCMNGKCHCTPK-OH; disulfide 8-28, 14-33, 18-35)	0.05	0.0296
CC[C@H](C)[C@H](NC(=O)[C@@H](NC(=O)CN)C(C)C)C(=O)N[C@H](C(=O)N[C@@H](CC(N)=O)C(=O)N[C@H](C(=O)N[C@@H](CCCCN)C(=O)N[C@H]1CSSC[C@@H]2NC(=O)[C@H](CCCCN)NC(=O)CNC(=O)[C@H](Cc3ccccc3)NC(=O)[C@H](CCCNC(=N)N)NC(=O)[C@H](CCSC)NC(=O)CNC(=O)[C@H](C)NC(=O)[C@H](CCCCN)NC(=O)[C@H](CCCCN)NC(=O)[C@@H]3CSSC[C@@H](C(=O)N[C@H](C(=O)N4CCC[C@H]4C(=O)N[C@@H](CCCCN)C(=O)O)[C@@H](C)O)NC(=O)[C@H](Cc4c[nH]cn4)NC(=O)[C@H](CSSC[C@H](NC(=O)[C@H](CCC(N)=O)NC(=O)[C@H](CCCNC(=N)N)NC(=O)[C@H](CO)NC(=O)[C@H](CCC(=O)O)NC(=O)[C@H](CCCCN)NC1=O)C(=O)N[C@@H](CC(C)C)C(=O)N[C@@H](CCC(=O)O)C(=O)N1CCC[C@H]1C(=O)N3)NC(=O)[C@H](CCCCN)NC(=O)CNC(=O)[C@H](CC(N)=O)NC(=O)[C@H](CCSC)NC2=O)C(C)C)[C@@H](C)CC [I10E] (H-GVIINVKCKESRQCLEPCKKAGMRFGKCMNGKCHCTPK-OH; disulfide 8-28, 14-33, 18-35)	2.57	2.74
